Measurements reported in patent US10550165B2, “Peptide for inducing regeneration of tissue and use thereof” (STEMRIM INC., priority 2011, dated 2020).

Key:
[1] = test system: mouse bone marrow mesenchymal stem cell line (MSC-1 cells), PDGFRα-positive; experiment: Migration assay (Boyden / 48-well chemotaxis chamber) on bone marrow mesenchymal stem cell line MSC-1; assay type: cell-based
Outline: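 Mouse MSC-1 cells (3×10^6 cells/ml in D-MEM with 10% FBS) loaded in the upper wells of a 48-well Boyden chamber with 8 μm polycarbonate membrane; mouse HMGB1 peptides or HEK293-made HMGB1 in lower wells at 100 μg/ml, 5 μM or 10 μM; PBS as negative control. After 4 h at 37° C, migrated cells were Diff-Quik stained.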

[2] = test system: skin flap made on the back of a rat; experiment: Skin flap (skin damage) model on the back of rats; assay type: in vivo; conditions: for area of wound section (necrosed section) in the skin flap: FIG. 25
Protocol: Experimental animals used were SD rats (male, eight weeks old). After sufficiently deep anesthesia by isoflurane inhalation, a rectangular skin incision of 3 cm width×7 cm length was made on the back. The cephalic side was left uncut, and the skin was thoroughly detached from the subcutaneous tissues. The three incised sides were sutured to the surrounding skin using #4 silk suture, and protected with Tegaderm (3M) to prevent bacterial infection.
The full-length mouse HMGB1 (100 μg/administration/day) produced in HEK293 and chemically synthesized HMGB1 peptide (amino acids 1 to 44; 50 μg/administration/day) were diluted to 200 μl with phosphate buffer and administered to rats via the caudal vein. The first administration was performed 6 hours after the surgery, and then the agents were administered every 24 hours a total of five times. Phosphate-buffered physiological saline was administered as a negative control. Tegaderm was removed after one week, and the wound region was observed weekly to measure the areas of necrosis and ulceration.
Experimental animals used were 15 SD rats (male, eight weeks old) per group. After sufficient anesthesia by isoflurane inhalation, a rectangular skin incision of 3 cm width×7 cm length was made on the back. The cephalic side was left uncut, and the skin was thoroughly detached from the subcutaneous tissues. The incised three sides were sutured to the surrounding skin using #4 silk suture, and protected with Tegaderm (3M) to prevent bacterial infection.
Chemically synthesized HMGB1 peptide (amino acids 1-44; 50 μg/administration/day) or HMGB1 peptide (amino acids 17-25; 50 μg/administration/day) was diluted to 200 μl with phosphate buffer and administered to the rats with experimental wound. The first administration was performed 6 hours after the surgery, and then the agents were administered every 24 hours a total of five times. Phosphate-buffered physiological saline was administered as a negative control. Tegaderm was removed after one week, and the wound was observed two weeks after the wound production. Uncured areas (ulceration and necrosis) were measured.

[3] = test system: skin flap made on the back of a rat; experiment: Skin flap (skin damage) model on the back of rats; assay type: in vivo; conditions: six weeks after skin flap production; 50 μg/administration/day, five administrations, FIG. 26
[4] = 2 μM, area of migrated cells by image analysis, FIG. 10

synthetic peptide (1-44): chemically synthesized HMGB1 peptide, amino acids 1 to 44, mouse HMGB1 sequence (MGKGDPKKPRGKMSSYAFFVQTCREEHKKKHPDASVNFSEFSKK; UniProt P63158 1-44, looked up, fragment)
migration-promoting activity relative to the full-length HMGB1, compared per equal mass [1, 4]: 2.86 times | migration-promoting activity relative to the full-length HMGB1, compared per equal mole [1, 4]: 0.57 times | migration-promoting activity ([1]; synthetic peptides, 100 μg/ml, positive control 1-215(HEK), FIG. 7): activity comparable to or higher than that of the positive control | area of wound section (necrosed section) in the skin flap ([2]; after four weeks and later, versus the other two groups): a further shrinking effect was observed | area of wound section (necrosed section) in the skin flap ([2]; one to three weeks after the skin flap was made, versus negative control): effect of shrinking the wound section was confirmed | rats in which skin necrosis developed ([2]; one week after surgery, caudal vein, five administrations, full-length 100 μg, peptide 50 μg/administration/day, negative control four of five): one of five rats | rats with severe skin contracture ([2]; seven weeks after surgery, same regimen, negative control four of five, FIG. 24): two of five rats | ratio of the uncured area relative to the area of the whole skin flap, average ([2]; two weeks after skin flap production, 50 μg/administration/day, five administrations, 15 SD rats per group, FIG. 26): 14.1% | ratio of the uncured area relative to the area of the whole skin flap, average [3]: 4.1%
